Assay results reported in ChEMBL document CHEMBL5331106, “Investigation into the Mechanism of Action of the Tuberculosis Drug Candidate SQ109 and Its Metabolites and Analogues in Mycobacteria” (J Med Chem, 2023).

Experiments:
Cell membrane = test: Uncoupling activity in Escherichia coli inverted membrane vesicles assessed as collapse of pH gradient by measuring increase in ACMA fluorescence intensity by fluorometric analysis; type: subcellular
[1] = system: Mycobacterium tuberculosis; test: Antimycobacterial activity against Mycobacterium tuberculosis HN878 assessed as inhibition of mycobacterial growth incubated for 5 days in presence of 50 uM undecaprenyl phosphate; type: functional, organism-based; details: HN878, 120 h
[2] = system: Mycobacterium tuberculosis; test: Antimycobacterial activity against Mycobacterium tuberculosis HN878 assessed as inhibition of mycobacterial growth incubated for 5 days; type: functional, organism-based; details: HN878, 120 h
[3] = system: Mycolicibacterium smegmatis; test: Antimycobacterial activity against Mycobacterium smegmatis assessed as inhibition of mycobacterial growth incubated for 48 hrs in presence of 50 uM undecaprenyl phosphate; type: functional, organism-based
[4] = system: Mycolicibacterium smegmatis; test: Antimycobacterial activity against Mycobacterium smegmatis assessed as inhibition of mycobacterial growth incubated for 48 hrs; type: functional, organism-based
[5] = system: Mycolicibacterium smegmatis; test: Rescue fold, ratio of IC50 for antimycobacterial activity against Mycobacterium smegmatis in presence of 50 uM undecaprenyl phosphate to IC50 for antimycobacterial activity against Mycobacterium smegmatis; type: functional
[6] = target: T1, Undecaprenyl-diphosphatase (Escherichia coli (strain K12), UniProt P60932); test: Inhibition of UppP in Escherichia coli using FPP as substrate pretreated for 20 mins followed by FPP addition and measured after 60 mins by malachite green based assay
T1 sequence (P60932 whole entry): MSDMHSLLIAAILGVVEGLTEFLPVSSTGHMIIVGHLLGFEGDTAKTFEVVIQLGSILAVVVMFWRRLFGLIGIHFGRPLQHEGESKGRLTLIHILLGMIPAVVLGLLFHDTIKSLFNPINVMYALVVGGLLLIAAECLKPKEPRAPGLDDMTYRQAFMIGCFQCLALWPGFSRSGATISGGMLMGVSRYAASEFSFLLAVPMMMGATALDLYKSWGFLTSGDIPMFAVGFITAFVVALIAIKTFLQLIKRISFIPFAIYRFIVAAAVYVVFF

[7] = system: Mycolicibacterium smegmatis; test: Antimycobacterial activity against Mycobacterium smegmatis assessed as inhibition of mycobacterial growth incubated for 48 hrs in presence of 50 uM menaquinone-4; type: functional, organism-based
[8] = system: Mycolicibacterium smegmatis; test: Rescue fold, ratio of IC50 for antimycobacterial activity against Mycobacterium smegmatis in presence of 100 uM menaquinone-7 to IC50 for antimycobacterial activity against Mycobacterium smegmatis; type: functional
[9] = system: Mycolicibacterium smegmatis; test: Rescue fold, ratio of IC50 for antimycobacterial activity against Mycobacterium smegmatis in presence of 100 uM menaquinone-4 to IC50 for antimycobacterial activity against Mycobacterium smegmatis; type: functional
[10] = system: Mycolicibacterium smegmatis; test: Antimycobacterial activity against Mycobacterium smegmatis assessed as inhibition of mycobacterial growth incubated for 48 hrs in presence of 50 uM Upp; type: functional, organism-based

SMILES	IC50 (Cell membrane) [µM]	IC50 [1] [µM]	IC50 [2] [µM]	IC50 [3] [µM]	IC50 [4] [µM]	Ratio IC50 [5]	IC50 [6] [µM]	IC50 [7] [µM]	Ratio IC50 [8]	Ratio IC50 [9]	IC50 [10] [µM]
CC(C)CCCC(C)CCNCCNC1C2CC3CC(C2)CC1C3 (stereo not drawn)	5.2	16	1.7	9.1	9.3	1	15				
NC1C2CC3CC(C2)CC1C3 (stereo not drawn)	> 1000		> 25		> 500						
CC(C)=CCC/C(C)=C/CNCCNC1C2CC3CC1CC(O)(C3)C2 (stereo not drawn)	18		> 25	57	42	1.4					
CC(C)=CCC/C(C)=C/CNCCNC1C2CC3CC(C2)CC1(O)C3 (stereo not drawn)	9.1		0.81	15	5	3					
CC(C)=CCC/C(C)=C/C(=O)O	> 1000		> 25		> 500						
CCCCc1ccc(-c2nc(C)c(/C(C)=N/NC(=N)N)s2)cc1				89	11	7.8		9.8			
O=C1C2CC3CC(C2)CC1C3	> 1000		> 25		> 500						
CC(C)=CCC/C(C)=C/CNCCOC1C2CC3CC(C2)CC1C3 (stereo not drawn)	1.2	0.54	0.07	11	1.3	9	21				
CC(C)=CCC/C(C)=C/COCCNC1C2CC3CC(C2)CC1C3 (stereo not drawn)	55	2.8	1.3	9.8	7.3	1.3	91				
CC(C)=CCCC1(C)CC=NO1 (stereo not drawn)	> 1000		> 25		> 500						
CC(C)=CCC/C(C)=C/CCNCCNC1C2CC3CC(C2)CC1C3 (stereo not drawn)	1.9	8	0.82	48	2.7	18	16		2	2	
CC(C)=CCC/C(C)=C/CNCCNC1[C@H]2C[C@@H]3C[C@H](C2)[C@@H](O)[C@H]1C3 (stereo partly drawn)	12		4.2	24	11	2.2					
CC(C)=CCC/C(C)=C/C(C)(C)NCCNC1C2CC3CC(C2)CC1C3 (stereo not drawn)	1.1	8.7	0.61	43	1.9	23	37				
CC(C)=CCC/C(C)=C/CN	307		> 25		> 500						
c1ccc(CCNC2CCCc3c2[nH]c2ccc(C4CCCCC4)cc32)cc1 (stereo not drawn)				56	14						14
CC(C)=CCC/C(C)=C/CCNCCNC1C2CC3CC1CC(F)(C3)C2 (stereo not drawn)	5.5	8.8	1.5	38	8	4.8	153				
C/C(=C\CNCCNC1C2CC3CC(C2)CC1C3)CCC(=O)C(C)C (stereo not drawn)	15		14	63	26	2.4					
ON=C1C2CC3CC(C2)CC1C3	> 1000		> 25		> 500						
CC(C)=CCC/C(C)=C/CNCCNC1C2CC3CC1CC(C2)C3O (stereo not drawn)	19		> 25	67	42	1.6					
CCCCCCCCCCCNCCNC1C2CC3CC(C2)CC1C3 (stereo not drawn)	0.87	24	1.9	8.9	3.9	2.3	18				
NCCNC1C2CC3CC(C2)CC1C3 (stereo not drawn)	130		> 25		> 500						
CC(C)=CCC/C(C)=C/CNCCN	77		> 25		> 500						
CC(C)=CCC/C(C)=C/C=N\O	> 1000		> 25		> 500						
C/C(=C\CC/C(C)=C/CNCCNC1C2CC3CC(C2)CC1C3)CO (stereo not drawn)	17		> 16	24	20	1.2					
CC(C)=CCC/C(C)=C/C=O [CITRAL]	> 1000		> 25		> 500						
